Data published in ChEMBL document CHEMBL1201862, “PubChem BioAssay data set” (2004).
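Tested at 5 concentrations; 48 h exposure; 96-well plates; endpoints linearly interpolated, else capped at highest concentration. GI50 = concentration required for 50% inhibition of growth.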 Calls of active or inactive are those of the source. Cut-off read from the data, not from the text of the source: active = GI50 up to about 1.1 µM and inactive = higher.

Columns and labels:
Assay in all cases: NCI-60 cell line screen, 48 h
[1] = tested on: DMS-114
[2] = tested on: DMS-273
[3] = tested on: M19-MEL
[4] = tested on: SNB-78
[5] = tested on: BT-549
[6] = tested on: DLD-1
[7] = tested on: LXFL 529
[8] = tested on: XF498
[9] = tested on: RXF 631

## Cc1cc(N(CCC#N)CCC#N)ccc1/N=N/c1cccc(Cl)c1
[1]
  GI50: 31.8 µM (inactive)
[2]
  GI50: 9.68 µM (inactive)
[3]
  GI50: > 100 µM (inactive)
[4]
  GI50: > 100 µM (inactive)

## CCOC(=O)/C=C(/C(=O)OCC)n1cc(C)c(=O)n(Cc2cnnn2COCCOC(C)=O)c1=O
[5]
  GI50: 17.5 µM (inactive)

## Cc1cn(C2CC(OC(c3ccccc3)(c3ccccc3)c3ccccc3)C(COC(c3ccccc3)(c3ccccc3)c3ccccc3)O2)c(=O)[nH]c1=O (configuration not stated)
[5]
  GI50: 27.5 µM (inactive)

## C=C1C(OC2O[C@@H]3O[C@@]4(C)CC[C@H]5[C@H](C)CC[C@@H](C2=C)[C@@]35O4)O[C@@H]2O[C@@]3(C)CC[C@H]4[C@H](C)CC[C@@H]1[C@@]24O3 (some centres not stated)
[5]
  GI50: > 50 µM (inactive)

## CC(=O)OC12OC(C)(C3C(=O)N(c4ccccc4)C(=O)C31)N(c1ccccc1)C2=O (configuration not stated)
[5]
  GI50: > 100 µM (inactive)

## CCNC(=O)c1cc(/C=C/c2ccc([N+](=O)[O-])o2)nc2ccccc12
[5]
  GI50: 29.8 µM (inactive)

## CC(C)C1=Cc2ccc3c(c2C(=O)C1=O)CCCC3(C)C [MILTIRONE]
[6]
  GI50: 2.15 µM (inactive)
[2]
  GI50: 4.34 µM (inactive)
[7]
  GI50: 1.86 µM (inactive)
[3]
  GI50: 2.56 µM (inactive)
[4]
  GI50: 3.85 µM (inactive)

## Cc1ccc2c(ccc(/C=C/c3ccc(O)c4ncccc34)[n+]2C)c1
[6]
  GI50: 2.72 µM (inactive)
[1]
  GI50: 0.489 µM (active)
[2]
  GI50: 2.07 µM (inactive)
[7]
  GI50: 1.16 µM (inactive)
[3]
  GI50: 6.08 µM (inactive)
[4]
  GI50: 9.77 µM (inactive)
[8]
  GI50: 3.19 µM (inactive)

## COc1ccc2oc(=O)c(-c3nc4ccccc4o3)cc2c1
[5]
  GI50: > 100 µM (inactive)

## CCN1/C(=C/C#C/C(C)=C\c2sc3ccc(Cl)cc3[n+]2CC)Sc2ccc(Cl)cc21
[5]
  GI50: 2.14 µM (inactive)

## N#CC12Cc3cc4c(cc3-c3cccc(c31)CCN2C(=O)c1ccccc1)OCO4 (configuration not stated)
[6]
  GI50: > 100 µM (inactive)
[1]
  GI50: 83 µM (inactive)
[2]
  GI50: > 100 µM (inactive)
[7]
  GI50: > 100 µM (inactive)
[3]
  GI50: > 100 µM (inactive)
[4]
  GI50: 51.6 µM (inactive)
[8]
  GI50: 24.2 µM (inactive)

## S=C(Nc1cccc(Cl)c1)Nc1ccccn1
[5]
  GI50: > 100 µM (inactive)

## CCC1C(=O)OCc2c1cc1n(c2=O)Cc2cc3ccccc3nc2-1 (configuration not stated)
[5]
  GI50: 4.38 µM (inactive)

## Cc1cccc2c(N)c3cccc(C(=O)NCC[N+](C)(C)Cc4sc(N5CCOCC5)nc4[N+](=O)[O-])c3nc12
[5]
  GI50: 13.1 µM (inactive)

## O=C1O[B-](c2ccccc2)(c2ccccc2)[NH+]2CCCC12 (configuration not stated)
[5]
  GI50: 41.8 µM (inactive)

## CC(=O)NC1C(OCc2ccccc2)OC(CO)C(O)C1OCC(=O)N[C@@H](C)C(=O)N[C@H](CCC(=O)NCCNc1ccc([N+](=O)[O-])c2[nH]c3ccccc3c(=O)c12)C(N)=O (some centres not stated)
[5]
  GI50: 20.1 µM (inactive)

## CN(C)CCN(C)C(=O)C1CCCN1C(=O)OCc1ccccc1 (configuration not stated)
[6]
  GI50: 71.3 µM (inactive)
[1]
  GI50: > 100 µM (inactive)
[2]
  GI50: > 100 µM (inactive)
[7]
  GI50: > 100 µM (inactive)
[3]
  GI50: > 100 µM (inactive)
[4]
  GI50: > 100 µM (inactive)
[8]
  GI50: > 100 µM (inactive)

## Cc1nc(C)c(N2CCN(CN)CC2)c(O)n1
[5]
  GI50: > 100 µM (inactive)

## Cc1oc2c(C)c(O)c3c(c2c1C1(C)OCCO1)C(=O)C=C(Cl)C3=O
[2]
  GI50: > 100 µM (inactive)
[7]
  GI50: > 100 µM (inactive)
[3]
  GI50: > 100 µM (inactive)
[9]
  GI50: > 100 µM (inactive)
[4]
  GI50: > 100 µM (inactive)
[8]
  GI50: 33.3 µM (inactive)

## CC1(C)CCCCCCCCCC2CC2CCC(C)(C)C1=O (configuration not stated)
[5]
  GI50: 34.4 µM (inactive)

## CCOC(=O)C1=C(Nc2cccc3ccccc23)OC/C1=N\NC(=O)c1ccccc1O
[6]
  GI50: 17.6 µM (inactive)
[1]
  GI50: 11.4 µM (inactive)
[2]
  GI50: 9.59 µM (inactive)
[7]
  GI50: 20.3 µM (inactive)
[3]
  GI50: 19.1 µM (inactive)
[9]
  GI50: 21.2 µM (inactive)
[8]
  GI50: 8.04 µM (inactive)

## CCn1c2c(c3ccccc3c1=O)C(=O)c1ccccc1-2
[5]
  GI50: > 100 µM (inactive)

## Cc1[nH]c(=O)nc(N/N=C/c2ccc(Cl)cc2)c1C(=O)Nc1ccc(Cl)cc1
[5]
  GI50: > 100 µM (inactive)
[6]
  GI50: > 33.7 µM (inactive)
[1]
  GI50: 18.2 µM (inactive)
[2]
  GI50: 12.6 µM (inactive)
[7]
  GI50: 23 µM (inactive)
[3]
  GI50: 16.1 µM (inactive)
[4]
  GI50: > 100 µM (inactive)
[8]
  GI50: 4.68 µM (inactive)

## CC(C)(C)OC(=O)N(CCCCNC(=O)OCc1ccccc1)CCCNC(=O)OCc1ccccc1
[5]
  GI50: 53 µM (inactive)

## Cc1cccc2cc3c(ccc4ccccc43)c[n+]12
[5]
  GI50: 7.08 µM (inactive)

## C=CCN1CCC(O)(c2cc(C(=O)OCC)[nH]c2-c2cc(C)no2)C1 (configuration not stated)
[5]
  GI50: > 100 µM (inactive)

## Cc1ccccc1C1=[N+]([O-])c2ccccc2C1=O
[6]
  GI50: 17.3 µM (inactive)
[1]
  GI50: 13.4 µM (inactive)
[7]
  GI50: 14.9 µM (inactive)
[3]
  GI50: 15.2 µM (inactive)
[9]
  GI50: 23.6 µM (inactive)
[8]
  GI50: 17.4 µM (inactive)

## O=[N+]([O-])c1cccc(/C=N/N=c2\ccc3ccccc3[nH]2)c1O
[5]
  GI50: 3.78 µM (inactive)

## CN(C)/C=C/C=C(/C=N/S(=O)(=O)C(F)(F)F)C1C=CN(S(=O)(=O)C(F)(F)F)C=C1
[5]
  GI50: 26.2 µM (inactive)

## OCC1OC(c2scc3c(=S)[nH]cnc23)C(O)C1O (configuration not stated)
[5]
  GI50: 27.5 µM (inactive)

## COc1ccc(C2C3=C(COC3=O)Oc3cc4c(cc32)OCO4)cc1 (configuration not stated)
[6]
  GI50: 15.4 µM (inactive)
[1]
  GI50: 4.3 µM (inactive)
[2]
  GI50: 5.26 µM (inactive)
[3]
  GI50: 15.5 µM (inactive)
[4]
  GI50: 16.6 µM (inactive)
[8]
  GI50: 7.18 µM (inactive)

## N#Cc1c(O)cc(=O)n2c1[nH]c1ccccc12
[5]
  GI50: > 100 µM (inactive)

## Cc1c2c(nc3ccccc13)C(=O)c1cccnc1C2=O
[5]
  GI50: 61.8 µM (inactive)

## O=C(O)CCC(=O)OC1N=C(c2ccccc2Cl)c2cc([N+](=O)[O-])ccc2NC1=O (configuration not stated)
[5]
  GI50: 89.1 µM (inactive)
